Data on three compounds can be found in patent EP1228058B1, “BENZOPYRANYL GUANIDINE DERIVATIVES, PROCESS FOR PREPARATION THEREOF, AND PHARMACEUTICAL COMPOSITIONS CONTAINING THEM” (Dongbu Hannong Chemical Co., Ltd., priority 1999, dated 2001).

Some results are limits rather than exact numbers.

One data set has as its system rat aorta. As to the kind of experiment: Vasodilation effects on isolated blood vessels of rats (methoxamine-constricted aortic rings). The class given is cell-based. The conditions noted are these: isolated rat aorta constricted with methoxamine (3 uM); read-out: Vasodilation Activity (in Vitro, rat aorta) (IC50). An excerpt: Male Sprague-Dawly rats (350-450 g, obtained from the Experimental Animal Team of the Korea Research Institute of Chemical Technology) were knocked unconscious by hitting the occipital region, sacrificed by cervical dislocation, and underwent thoracotomy. After being quickly removed, the thoracic aorta was deprived of the adipose tissue and cut into aortic rings of 3 mm width. The aorta was lightly rubbed with a modified Krebs Henseleit buffer (Physiological Salt Solution, PSS) soaked cotton club to remove the inner epithelial layer therefrom. While being suspended in an organ bath containing a physiological buffer, the vascular tissue was allowed to equilibrate under a resting tension of 2 g and then, stand for 1 hour at 37 °C for stabilization with a supply of a carbogen consisting of 95% O2-5% CO2.
Thereafter, the vascular tissue was constricted with 10^-5 M phenylephrine and washed several times with PSS and this procedure was repeated again to ensure the stable reacivity of vascular smooth muscle to repetitive constriction/dilatation.
In addition, 3x10^-6 M methoxamine was used to induce an intensive constriction in the vascular smooth muscle. When the vasoconstriction induced by the methoxamine reached and maintained a maximum, test compounds and controls were cumulatively added to the organ baths in concentrations of 1, 3, 10 and 30 uM so as to induce vasodilatation. As for the controls, they were Cromakalim and BMS-180448 (the compounds of the chemical formula 2), both known to be the first generation KATP activator with potent vasodilatation and cardioprotection effects.
Following the addition of the drugs, the change in the maximal constriction induced by methoxamine was calculated to plot a concentration-dilation response curve. Through a linear regression analysis, IC50, the drug concentration at which the vascular tissue is 50% dilated, was obtained for each drug.

Data set [1] deals with ischemic heart models of rats. As to the kind of experiment: Heart protective (anti-ischemic) activity in ischemic heart models of anesthetized rats. The conditions noted are these: 45 min occlusion, 90 min reperfusion. The class given is in vivo. As to the method: Male rats (350-450 g, obtained from the Experimental Animal Team of the Korea Research Institute of Chemical Technology) were anesthetized by the intraperitoneal injection of pentobarbital at a dose of 75 mg/kg. After trachetomy, the rats were rendered to respire artificially at a rate of 60/min with a stroke volume of 10 ml/kg. Cannulars were inserted into the fermoral vein and the fermoral artery and used for drug administration and blood pressure measurement, respectively.
In the ischemic myocardium damage models, the body temperature has an important influence on the results. To avoid the change in the body temperature, a body temperature measuring probe was inserted into the rectum of each rat and the body temperature was constantly kept at 37 °C with the aid of a homeothermic blanket control unit.
Afterwards, during testing, a continuous measurement was made of the mean arterial blood pressures and heart rates from the rats. For the measurement of the blood pressure, a pressure transducer, such as that manufactured by Grass Ins., MA, U.S.A., identified as Model Statham P23XL, was used. The heart rate was measured by a tachometer, such as that manufactured by Gould Inc., OH, U.S.A., identified as Biotachometer. In addition, all of the changes occurring were continuously recorded through the Gould 2000 chart recorder, manufactured by Gould Inc.
The left coronary artery was occluded according to the Selye H. method as follows. The rats underwent a left thoracotomy operation for partial opening of the chest and the right-side chest was pressurized by the middle finger of the left hand to push the heart out. Immediately after the left anterior descending coronary artery hereinafter referred to as (LAD) was carefully stitched using a suture needle with 5-0 silk ligature, the heart was then repositioned in the thoracic cavity while both ends of the ligature were situated outside. The opposite ligature ends were passed through a PE tube (PE100, 2.5 cm) and allowed to stand loose for 20 min for stabilization. Via the cannula inserted into the femoral vein, vehicles or drugs were administered into the rats which were rendered to stand for 30 min in order to sufficiently elicit the efficacies of the drugs. BMS-180448 was used as a control drug and the i.v.administration dose was 0.3 mg/kg for all test drugs of interest and the control drug.
Next, the PE tube which had the doubled strands of the ligature passed therethrough was pushed toward the heart and then, set upright by tightly pulling end regions of the ligature with a hemostatic pincette while pressing the coronary artery. The PE tube was allowed to stand for 45 min for the occlusion of the coronary artery, followed by the removal of the hemostatic pincette and then, by the reperfusion for 90 min.
After the reocclusion of the coronary artery in accordance with the above procedure, the rats were administered with 2 ml of a 1% Evans blue through an intravenous route. Subsequently, an excess of pentobarbital was intravenously injected to kill the rats, after which the heart was removed and then, deprived of the right ventricle and both atria. The left ventricle was cut horizontally to the heart apex into 5 or 6 slices which were weighed. From the surface of each slice, images were input with the aid of a Hi-scope into a computer installed with an image analyzing program (Image Pro Plus). From the images input into the computer, the area of the normal blood stream tissue region which appeared blue in a computer monitor and the area which appeared colorless were measured. The percentage of the colorless area to the total area of each slice was calculated and multiplied by the weight of each slice to determine the area at risk (AAR) of each slice. […]

For data set [2], the system named is ischemic heart models of beagle dogs. As to the kind of experiment: Heart protective (anti-ischemic) activity in ischemic heart models of anesthetized beagle dogs. The class given is in vivo. The conditions noted are these: total dose 2 mg/kg infused i.v. over 40 min, 90 min occlusion, 5 h reperfusion. As to the method:
In order to determine whether the compounds of the formula 1 are protective for the ischemic hearts of larger animals, experiments determining the anti-ischemic effects of the compounds on beagle dogs were conducted as follows. The experiments on beagle dogs followed the method of Grover et al.' (G. J. Grover et al., J. Cardiovasc. Pharmacol. 25, 40 (1995)).
After being anesthetized by an intravenous injection of pentobarbital at a dose of 35 mg/kg, male beagle dogs (8-12 kg) were further infused with pentobarbital sodium at a dose of 3-4 mg/kg through the right cephalic vein throughout the experiments, so as to keep the anesthesia constant. […] The heart rate was measured by a tachometer, such as that manufactured by Gould Inc., OH, U.S.A., identified as Biotachometer. In addition, all of the changes occurring during the experiment were continuously recorded through the Gould 2000 chart recorder, manufactured by Gould Inc.
The fifth intercostal space was incised to open the thorax and the LAD was separated from its surrounding tissues. […] The LAD part upstream of the silk ligature was isolated from adjacent tissues and the blood flow was measured quantitatively. […] Using polygraph such as Grass Model 7E, the electrocardiogram was measured and read (Lead II). […]

The subject of data set [3] is Rat aortic smooth muscle cells. As to the kind of experiment: Inhibition of proliferation of vascular smooth muscle cells ([3H]-thymidine incorporation into DNA). The class given is cell-based. The conditions noted are these: [^3H]-thymidine into DNA; angiotensin II (10^-7M) stimulated = 100; 72 hr. How it is done:
Inhibitory effects on cell proliferation was evaluated by measurement of incorporation of [^3H]-thymidine into DNA. Rat aortic smooth muscle cells were grown in 24 well plate for 3 days to near confluence in DMEM containing 10% FBS, then DMEM containing FBS was washed out. Cells were cultured again in DMEM without serum for 48 hr to be quiescent. […] During the last 4 hours of incubation, [^3H]-thymidine (1 uCi/ml) was added. […] The samples were filtered through glass microfiber filter (GF/B. Whatmann) under vacuum. After washing the filters 3 times with 2 ml of an aqueous solution of 5% TCA, the radioactivity incorporated into DNA was counted by Liquid Scintillation Counter (Packard, TRI-CARB, 2100TR), then calculated incorporation % of [^3H]-thymidine.

The nature of data set [4]: Acute oral toxicity test in rats. The conditions noted are these: rat, in vivo, single oral dose in 0.5% methyl cellulose, read-out: lethal dose (LD50) for oral administration. The gist of the method:
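Six-week-old SPF SD rats, two per group, received a single oral dose of 1 g/kg suspended in 0.5% methyl cellulose (10 ml/kg). Survivors at the end of observation underwent haematology, serum chemistry, necropsy and histopathology of vital organs with macroscopic lesions.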

The subject of data set [5] is diabetic rats. Put plainly: Effects on MNCV (motor nerve conduction velocity) in diabetic rats. Type of data set: in vivo. The conditions noted are these: MNCV; 100 mg/Kg, orally once a day, diabetic rats. How it is done:
Diabetes was induced with i.p. (intra peritoneum) injection of streptozocin (65 mg/Kg) in rats, then test compounds dissolved in 2 ml of media (physiological saline: ethanol: tween 80 = 8:1:1), were orally administered once a day. Rats were anesthetized with halothane, then the sciatic nerve was exposed to measure MNCV. The nerve was stimulated at two points. The first stimulus electrode was inserted at proximal end, and second stimulating electrode was inserted at the sciatic notch. The coaxial needle electrode was inserted into interdigital muscle, then the muscle action potential induced by two point stimulation. The conduction velocity was calculated by dividing the distance between two stimulus points by the latency difference. Lipoic acid (100 mg/Kg) was used in comparison with the compound of formula 1 in recovery of impaired MNCV in diabetic rats. The recovery (%) of MNCV was calculated according to the following mathematical formula 4. [Mathematical formula 4] Recovery(%) =(MNCV of treated group - MNCV of diabetic rats)/(MNCV of normal control-MNCV of diabetic rats)x100 [formula]

In data set [6] the test system is diabetic rats. Put plainly: Nociceptive test (hot plate test) in diabetic rats. Type of data set: in vivo. The conditions noted are these: 50 °C hot plate. As to the method:
Effects on nociceptive responses of test compounds in rats were examined using hot plate. The same methods were applied for the induction of diabetes and treatment of test compound in rats. Rats were placed onto 50 °C hot plate, then latencies of nociceptive action such as licking were determined. The recovery (%) of nociceptive responses in diabetic rats was calculated according to the following mathematical […]. [Mathematical formula 5] Recovery(%) =(Response in treated group - Response in diabetic control)/(Response in normal control-Response in diabetic control)x100 [formula]

The term IC50 denotes the concentration that inhibits the measured activity by half. In the case of `CC1(C)Oc2ccc(C#N)cc2[C@@H](NC(=NC#N)Nc2ccc(Cl)cc2)[C@@H]1O` [BMS-180448, reference compound], the IC50 with rat aorta is 1.38 µM. For the same compound, in data set [1], the “Anti-ischemic Activity (in vivo, rats) (0.3 mg/kg i.v.) IZ/AAR (%)” value came out at 39.14%. For the same compound, the “Anti-ischemic Activity (in vivo, dogs) (2 mg/kg/40 i.v.) min,i.v.) IZ/AAR (%)” value in data set [2] turned out to be 38.02%.

In turn, `COC(OC)[C@]1(C)Oc2ccc([N+](=O)[O-])cc2[C@H](NC(=NC#N)NCc2ccccc2)[C@H]1O` [Example 22, (2R, 3R, 4S)-N''-cyano-N (6-nitro-3,4-dihydro-3-hydroxy-2-methyl-2-dimethoxy methyl-2H-benzopyran-4-yl)-N'-benzylguanidine] showed an Incorporation % in data set [3] of 64.0%. Besides, the LD50 in data set [4] was more than 1000 mg/kg.

For `O=C(O)CCCCC1CCSS1` (centres unmarked) [Lipoic acid, reference compound], the “Recovery (%)” value in the data set on diabetic rats [5] was 136.6%; in the data set on diabetic rats [6] (nociceptive responses), 60.2%. Also, the “Nociceptive response” value in the data set on diabetic rats [6] (latency of licking) came out at 4.371 s.
